The record followed here is patent US10266526B2, “Substituted 1,2,3-triazoles as SMYD inhibitors for treating cancer” (EPIZYME, INC., priority 2014, dated 2019).

Where a name gives a salt, the structure may show the parent alone.

For assay [1], the target named is T1, SMYD3 (Homo sapiens (Human), UniProt Q9H7B4). Description: SMYD3 biochemical assay (SMYD3 enzyme assay on MEKK2 protein substrate, 3H-SAM scintillation proximity assay). The note with it: read-out: SMYD3 Biochem IC50. The method in brief: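 Native full-length human SMYD3, expressed in E. coli, was preincubated with compound for 30 min at room temperature in 25 mM Tris-Cl pH 8.0, 1 mM TCEP, 0.005% BSG and 0.005% Tween 20. ³H-SAM plus GST-MEKK2 then started the reaction. It was stopped with unlabeled SAM (100 uM final), and methylated MEKK2 was read by SPA.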

Assay [2] addresses T1, SMYD3. Description: SMYD3 cell assay (Trimethyl-MEKK2 In-Cell Western in 293T/17 cells transfected with MEKK2-flag and SMYD3). The format is cell-based. In a few lines:
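Methanol-fixed cells stained in-cell Western for trimethyl-MEKK2 and anti-flag. Ratio-based % inhibition against DMSO and background controls; IC50 by non-linear regression, triplicate wells.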

Setting [3] is: Table 3A, average of n = 1 to n = 50.
[4] abbreviates: Table 3A, average of n = 1 to n = 50, read-out: SMYD3 cell IC50.

T1 sequence (Q9H7B4 whole entry): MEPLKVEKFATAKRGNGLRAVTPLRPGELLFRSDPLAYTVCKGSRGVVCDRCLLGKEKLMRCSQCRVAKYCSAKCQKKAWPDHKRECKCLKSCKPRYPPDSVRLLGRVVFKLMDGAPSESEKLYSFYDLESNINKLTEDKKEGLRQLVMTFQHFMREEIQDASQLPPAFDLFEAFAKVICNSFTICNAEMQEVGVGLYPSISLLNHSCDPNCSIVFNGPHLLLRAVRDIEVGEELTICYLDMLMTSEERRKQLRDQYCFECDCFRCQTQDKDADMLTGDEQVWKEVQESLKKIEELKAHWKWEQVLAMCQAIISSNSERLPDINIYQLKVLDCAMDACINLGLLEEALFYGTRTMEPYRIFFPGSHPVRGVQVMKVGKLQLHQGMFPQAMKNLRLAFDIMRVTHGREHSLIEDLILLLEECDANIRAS

`NC1CCN(S(=O)(=O)N2[C@@H]3CC[C@H]2C[C@@H](NC(=O)c2ccc4c(c2)NC(=O)CO4)C3)CC1` [compound 609, N-((1R,3r,5S)-8-(4-aminopiperidin-1-ylsulfonyl)-8-aza-bicyclo[3.2.1]octan-3-yl)-3-oxo-3,4-dihydro-2H-benzo[b][1,4]oxazine-6-carboxamide Hydrochloride]: the IC50 on SMYD3 [1] (setting [3]) was determined as 0.0237 µM; on SMYD3 [2] (setting [4]) it was 3.7 µM.

As to `CN1C(=O)Cc2cc(C(=O)N[C@H]3C[C@H]4CC[C@@H](C3)N4S(=O)(=O)CC3CCNCC3)ccc21` [compound 611, 1-methyl-2-oxo-N-((1R,3r,5S)-8-((piperidin-4-ylmethyl)sulfonyl)-8-azabicyclo[3.2.1]octan-3-yl)indoline-5-carboxamide], the IC50 at SMYD3 [1] (setting [3]) is 0.0259 µM; at SMYD3 [2] (setting [4]) it was 3.92 µM.

For `CC(C)(N)c1ccc(S(=O)(=O)N2[C@@H]3CC[C@H]2C[C@@H](NC(=O)c2ccc4c(c2)CC(=O)N4)C3)cc1` [compound 612, N-((1R,3r,5S)-8-((4-(2-aminopropan-2-yl)phenyl)sulfonyl)-8-azabicyclo[3.2.1]octan-3-yl)-2-oxoindoline-5-carboxamide], the IC50 on SMYD3 [1] (setting [3]) was found to be 0.0307 µM; at SMYD3 [2] (setting [4]), 2.53 µM.

Consider `CC(C)(N)c1ccc(S(=O)(=O)N2[C@@H]3CC[C@H]2C[C@@H](NC(=O)c2cc4c(cc2Cl)NC(=O)C4)C3)cc1` [compound 613, N-((1R,3r,5S)-8-((4-(2-aminopropan-2-yl)phenyl)sulfonyl)-8-azabicyclo[3.2.1]octan-3-yl)-6-chloro-2-oxoindoline-5-carboxamide], for which the 50% inhibitory concentration (IC50) was 0.0371 µM at SMYD3 [1] (setting [3]) and 1.77 µM on SMYD3 [2] (setting [4]).

For `O=C1Cc2cc(C(=O)N[C@H]3C[C@H]4CC[C@@H](C3)N4S(=O)(=O)CCN3CCCC3)c(Cl)cc2N1` [compound 614, 6-chloro-2-oxo-N-((1R,3r,5S)-8-((2-(pyrrolidin-1-yl)ethyl)sulfonyl)-8-azabicyclo[3.2.1]octan-3-yl)indoline-5-carboxamide], the IC50 at SMYD3 [1] (setting [3]) was determined as 0.046 µM; on SMYD3 [2] (setting [4]), 0.38 µM.

Consider `O=C1Cc2cc(C(=O)N[C@H]3C[C@H]4CC[C@@H](C3)N4S(=O)(=O)CCN3CCCC3)ccc2N1` [compound 615, 2-oxo-N-((1R,3r,5S)-8-((2-(pyrrolidin-1-yl)ethyl)sulfonyl)-8-azabicyclo[3.2.1]octan-3-yl)indoline-5-carboxamide], for which the IC50 on SMYD3 [1] stood at 0.0497 µM; at SMYD3 [2] (setting [4]), 0.761 µM.

Regarding `CCc1cnnc(C(=O)N[C@H]2C[C@H]3CC[C@@H](C2)N3S(=O)(=O)N2CCC(N)CC2)c1` [compound 616, N-[(1R,3r,5S)-8-(4-aminopiperidine-1-sulfonyl)-8-azabicyclo[3.2.1]octan-3-yl]-5-ethylpyridazine-3-carboxamide Trifluoroacetate], the IC50 on SMYD3 [1] was found to be 0.0499 µM; at SMYD3 [2] (setting [4]), 0.54 µM.

In the case of `CN1C(=O)Cc2cc(C(=O)N[C@H]3C[C@H]4CC[C@@H](C3)N4S(=O)(=O)CC3CCNCC3)c(Cl)cc21` [compound 617, 6-chloro-1-methyl-2-oxo-N-((1R,3r,5S)-8-((piperidin-4-ylmethyl)sulfonyl)-8-azabicyclo[3.2.1]octan-3-yl)indoline-5-carboxamide], the IC50 stood at 0.0523 µM on SMYD3 [1] (setting [3]) and 2.96 µM on SMYD3 [2] (setting [4]).

In the case of `NC1CCN(S(=O)(=O)N2[C@@H]3CC[C@H]2C[C@@H](NC(=O)c2nnc(C4CC4)s2)C3)CC1` [compound 618, N-((1R,3r,5S)-8-((4-aminopiperidin-1-yl)sulfonyl)-8-azabicyclo[3.2.1]octan-3-yl)-5-cyclopropyl-1,3,4-thiadiazole-2-carboxamide], the IC50 worked out at 0.0558 µM at SMYD3 [1] (setting [3]) and 0.348 µM at SMYD3 [2] (setting [4]).

Turning to `CCc1cnnc(C(=O)N[C@H]2CCN(S(=O)(=O)N3CCC(N)CC3)[C@@H](C)C2)c1` [compound 619, N-((2S,4S)-1-((4-aminopiperidin-1-yl)sulfonyl)-2-methylpiperidin-4-yl)-5-ethylpyridazine-3-carboxamide], the results for the IC50 on SMYD3 [1] (setting [3]) and on SMYD3 [2] (setting [4]) were 0.0596 µM and 0.468 µM, respectively.

Regarding `O=C1Cc2cc(C(=O)NC3CCN(S(=O)(=O)CC4CCNCC4)CC3)ccc2N1` [compound 620, 2-oxo-N-[1-[(piperidin-4-ylmethane)sulfonyl]piperidin-4-yl]-2,3-dihydro-1H-indole-5-carboxamide Trifluoroacetate], the IC50 on SMYD3 [1] (setting [3]) was 0.0682 µM; at SMYD3 [2] (setting [4]) it was no less than 10 µM.

`NCCCS(=O)(=O)N1CCC(NC(=O)c2cc3c(cc2Cl)NC(=O)C3)CC1` [compound 621, N-(1-((3-aminopropyl)sulfonyl)piperidin-4-yl)-6-chloro-2-oxoindoline-5-carboxamide]: the IC50 was 0.0775 µM at SMYD3 [1] (setting [3]) and 6.84 µM on SMYD3 [2] (setting [4]).

In the case of `N[C@H]1CC[C@H](S(=O)(=O)N2[C@@H]3CC[C@H]2C[C@@H](NC(=O)c2ccc4c(c2)OC(F)(F)O4)C3)CC1` [compound 623, N-((1R,3R,5S)-8-(((1r,4R)-4-aminocyclohexyl)sulfonyl)-8-azabicyclo[3.2.1]octan-3-yl)-2,2-difluorobenzo[d][1,3]dioxole-5-carboxamide], the results for the IC50 on SMYD3 [1] (setting [3]) and on SMYD3 [2] (setting [4]) were 0.136 µM and 0.896 µM, respectively.

Turning to `NCCCS(=O)(=O)N1CCC(NC(=O)c2ccc3c(c2)CC(=O)N3)CC1` [compound 624, N-(1-((3-aminopropyl)sulfonyl)piperidin-4-yl)-2-oxoindoline-5-carboxamide], the IC50 is 0.159 µM at SMYD3 [1] (setting [3]) and no less than 10 µM on SMYD3 [2] (setting [4]).

Regarding `NC1CCN(S(=O)(=O)N2[C@@H]3CC[C@H]2C[C@@H](NC(=O)c2ccc4c(c2)OC(F)(F)O4)C3)CC1` [compound 626, N-((1R,3r,5S)-8-((4-aminopiperidin-1-yl)sulfonyl)-8-azabicyclo[3.2.1]octan-3-yl)-2,2-difluorobenzo[d][1,3]dioxole-5-carboxamide], the IC50 is 0.222 µM at SMYD3 [1] (setting [3]) and 2.97 µM at SMYD3 [2] (setting [4]).

Take `O=C(N[C@H]1C[C@H]2CC[C@@H](C1)N2S(=O)(=O)[C@H]1CC[C@H](NCc2ccccc2)CC1)c1ccc2c(c1)OC(F)(F)O2` [compound 627, N-((1R,3R,5S)-8-(((1r,4R)-4-(benzylamino)cyclohexyl)sulfonyl)-8-azabicyclo[3.2.1]octan-3-yl)-2,2-difluorobenzo[d][1,3]dioxole-5-carboxamide]: the IC50 on SMYD3 [1] (setting [3]) was found to be 0.225 µM; on SMYD3 [2] (setting [4]), 1.54 µM.

On to `O=C(N[C@H]1C[C@H]2CC[C@@H](C1)N2S(=O)(=O)CC1CCNCC1)c1ccc2c(c1)OC(F)(F)O2` [compound 628, 2,2-difluoro-N-((1R,3r,5S)-8-((piperidin-4-ylmethyl)sulfonyl)-8-azabicyclo[3.2.1]octan-3-yl)benzo[d][1,3]dioxole-5-carboxamide], for which the figures for the IC50 on SMYD3 [1] (setting [3]) and at SMYD3 [2] (setting [4]) were 0.232 µM and 3.62 µM, respectively.

As to `CCc1cc(C(=O)N[C@@H]2CCN(S(=O)(=O)N3CCC(N)CC3)[C@@H](C)C2)ns1` [compound 629, N-((2S,4R)-1-(4-aminopiperidin-1-ylsulfonyl)-2-methylpiperidin-4-yl)-5-ethyl-1,2-thiazole-3-carboxamide], the figures for the half-inhibitory concentration (IC50) at SMYD3 [1] (setting [3]) and on SMYD3 [2] (setting [4]) were 0.326 µM and 2.08 µM, respectively.

Consider `CN1CCC(CS(=O)(=O)N2[C@@H]3CC[C@H]2C[C@@H](NC(=O)c2ccc4c(c2)OC(F)(F)O4)C3)CC1` [compound 630, 2,2-difluoro-N-((1R,3r,5S)-8-(((1-methylpiperidin-4-yl)methyl)sulfonyl)-8-azabicyclo[3.2.1]octan-3-yl)benzo[d][1,3]dioxole-5-carboxamide], for which the results for the IC50 at SMYD3 [1] (setting [3]) and at SMYD3 [2] (setting [4]) were 0.361 µM and 6.55 µM, respectively.

For the molecule `C[C@H]1C[C@H](NC(=O)c2nnc(C3CC3)s2)CCN1S(=O)(=O)N1CCC(N)CC1` [compound 631, N-((2S,4R)-1-((4-aminopiperidin-1-yl)sulfonyl)-2-methylpiperidin-4-yl)-5-cyclopropyl-1,3,4-thiadiazole-2-carboxamide], the IC50 at SMYD3 [1] (setting [3]) worked out at 0.47 µM; on SMYD3 [2] (setting [4]) it was 4.9 µM.

In the case of `CC(=O)Nc1ccc(S(=O)(=O)N2CC[C@H](NC(=O)c3ccc4c(c3)CC(=O)N4)C[C@@H]2C)cc1` [compound 632, N-((2S,4S)-1-(4-acetamidophenylsulfonyl)-2-methylpiperidin-4-yl)-2-oxoindoline-5-carboxamide], the IC50 at SMYD3 [1] (setting [3]) was 0.526 µM; at SMYD3 [2] (setting [4]), no less than 10 µM.

For the molecule `NC1CCN(S(=O)(=O)N2[C@@H]3CC[C@H]2C[C@@H](NC(=O)c2cc(C4CC4)[nH]n2)C3)CC1` [compound 633, N-((1R,3r,5S)-8-((4-aminopiperidin-1-yl)sulfonyl)-8-azabicyclo[3.2.1]octan-3-yl)-5-cyclopropyl-1H-pyrazole-3-carboxamide], the figures for the IC50 at SMYD3 [1] (setting [3]) and on SMYD3 [2] (setting [4]) were 0.529 µM and no less than 10 µM, respectively.

With `C[C@@H]1CN(S(=O)(=O)N2CCC(N)CC2)CC[C@@H]1NC(=O)c1cc2c(cc1Cl)NC(=O)C2` [compound 634, N-((3R,4S)-1-((4-aminopiperidin-1-yl)sulfonyl)-3-methylpiperidin-4-yl)-6-chloro-2-oxoindoline-5-carboxamide], the IC50 was found to be 0.529 µM at SMYD3 [1] (setting [3]) and 0.972 µM on SMYD3 [2] (setting [4]).

On to `CCc1cccc(C(=O)N[C@H]2C[C@H]3CC[C@@H](C2)N3S(=O)(=O)CC2CCNCC2)c1` [compound 635, 3-ethyl-N-((1R,3r,5S)-8-((piperidin-4-ylmethyl)sulfonyl)-8-azabicyclo[3.2.1]octan-3-yl)benzamide], for which the IC50 on SMYD3 [1] (setting [3]) was 0.62 µM; on SMYD3 [2] (setting [4]) it was no less than 10 µM.

For `NC1CCN(S(=O)(=O)N2[C@@H]3CC[C@H]2C[C@@H](NC(=O)c2ccc4c(c2)OCC(=O)N4)C3)CC1` [compound 636, N-((1R,3r,5S)-8-((4-aminopiperidin-1-yl)sulfonyl)-8-azabicyclo[3.2.1]octan-3-yl)-3-oxo-3,4-dihydro-2H-benzo[b][1,4]oxazine-7-carboxamide], the half-maximal inhibitory concentration (IC50) on SMYD3 [1] (setting [3]) was 0.819 µM; against SMYD3 [2], no less than 10 µM.
